Measurements from publication PMC7402526, “An in vitro quantitative systems pharmacology approach for deconvolving mechanisms of drug-induced, multilineage cytopenias” (PLoS Computational Biology, 2020).

Assays:
B cells (B-lin) = assay: MLTA, B-lin: concentration-response and QSP model fit; format: cell-based, human; conditions: Homo sapiens, B-cell, 144 h
Summary of the method: (§1)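 Values derive from fitting a QSP Emax model (EmaxT 0–2, above 1 denoting added cell killing) to vehicle-normalized lineage counts. Counts were obtained by 17-parameter flow after 6-day culture of human bone marrow CD34+ cells with test article.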

[1] = system: total viable cells (totalViableCells); assay: MLTA, total live cells concentration-response; format: cell-based; conditions: Homo sapiens, 144 h, 6 days, normalized to vehicle control, read-out: total_live normalized cell count
Experimental: A custom optimized cytokine cocktail was developed using commercially available cytokines (Peprotech, New Jersey) to facilitate simultaneous multi-lineage differentiation and self-renewal of freeze-thawed primary human bone marrow-derived CD34+ cells in SFEM II media (cells and media from StemCell Technologies, Vancouver). Cultures were carried out in ultra-low attachment 96-well plates (Corning, New York) with test article added on day 0 and cultured at 37°C, 85% relative humidity, and 5% CO2 for six days before interrogating drug impact via 17-parameter flow cytometry.
The flow cytometry panel used to define hematopoietic subsets was composed of CD34-PECy7, CD90-PECY5, CD38-AF488, CD371-PE, CD45Ra-BV421, CD14-BV605, CD42b-AF647, CD10-PEDazzle594, CD235a-PerCPCy5.5 (BioLegend, California), CD15-BUV395, CD41a-APCH7, CD71-BV786 (BD Biosciences, California), and DAPI for dead cell exclusion (ThermoFisher, California). In short, Day 6 cells were harvested, FcR-blocked (FcR binding inhibitor, ThermoFisher), surface-stained, then analyzed in a buffer containing TruCount Control Beads using a BD LSR Fortessa SORP fitted with a high-throughput sampler (BD Biosciences, California). Data was analyzed in Diva 6.0.2 and exported to CSV where after all cell data was transformed to cell per mL then normalized on a per-donor basis to untreated control wells to determine drug impact.
Donor material was collected and cultured as described above. The number of replicate donor samples per drug ranged from 2–7 and varied per drug (S1 Table). Drug treatment was added at time 0 and cells were maintained in culture for 6 days. Concentrations tested for each drug compound are contained in S1 Table. Concentrations were selected to span a range that is clinically useful. Following treatment, cell populations were measured using flow cytometry. We extracted cell counts from flow cytometry data, normalized to bead counts, and corrected for well volume.
Each well was normalized to the average of six vehicle control wells. For drugs that were tested across multiple runs of the assay, vehicle-normalized donor data were pooled, and we used the average of these pooled data for further modeling. Normalized data used as model inputs are included in S1 Table.

MK cells (MK-lin) = assay: MLTA, MK: concentration-response and QSP model fit; format: cell-based, human; conditions: Homo sapiens, 144 h
Summary of the method: as §1

[2] = system: lymphocyte progenitors (LymP); assay: MLTA, LymP: concentration-response and QSP model fit; format: cell-based, human; conditions: Homo sapiens, Lymphocyte, 144 h
Summary of the method: as §1

[3] = system: granulocyte progenitor (Gran-lin prog); assay: MLTA, GranP: concentration-response and QSP model fit; format: cell-based, human; conditions: Homo sapiens, 144 h
Summary of the method: (§2)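 Six-day flow cytometry counts, bead-normalized and expressed relative to the mean of six vehicle wells, underlie each value. Cells were primary human bone marrow CD34+ cells cultured in SFEM II with cytokines promoting multi-lineage differentiation and self-renewal.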

[4] = system: multi-potent progenitors (MPPs); assay: MLTA, MPPs: concentration-response and QSP model fit; format: cell-based, human; conditions: Homo sapiens, 144 h
Summary of the method: as §1

granulocytes (Gran-lin) = assay: MLTA, Gran: concentration-response and QSP model fit; format: cell-based, human; conditions: Homo sapiens, 144 h
Summary of the method: as §2

[5] = system: granulocyte-macrophage progenitor (GMPs); assay: MLTA, GMPs: concentration-response and QSP model fit; format: cell-based, human; conditions: Homo sapiens, 144 h
Summary of the method: as §1

[6] = QSP model fit of 6-day MLTA data

Work on `CC(=O)c1c(C)c2cnc(Nc3ccc(N4CCNCC4)cn3)nc2n(C2CCCC2)c1=O` [palbociclib] yielded an EC50 (B cells (B-lin); [6]) of 90.6 nM, an activity at 0.0002 µM (B cells (B-lin); dose 0.2 nM, 6 days, normalized to vehicle control, read-out: B-lin normalized cell count) of 93.4% and an activity at 0.001 µM (B cells (B-lin); dose 1 nM, 6 days, normalized to vehicle control, read-out: B-lin normalized cell count) of 106%. The activity at 0.005 µM (B cells (B-lin); dose 5 nM, 6 days, normalized to vehicle control, read-out: B-lin normalized cell count) was 76.6%, the activity at 0.025 µM (B cells (B-lin); dose 25 nM, 6 days, normalized to vehicle control, read-out: B-lin normalized cell count) was 67.3% and the activity at 0.1 µM (B cells (B-lin); dose 100 nM, 6 days, normalized to vehicle control, read-out: B-lin normalized cell count) was 41.4%. For the same compound, the activity at 0.5 µM (B cells (B-lin); dose 500 nM, 6 days, normalized to vehicle control, read-out: B-lin normalized cell count) was 13.8%, the activity at 2.5 µM (B cells (B-lin); dose 2500 nM, 6 days, normalized to vehicle control, read-out: B-lin normalized cell count) was 8.85% and the Emax (B cells (B-lin); parameter from QSP model fitting, read-out: Emax_drug_B) was 49.9%. For the same compound, the viability at 0.0002 µM ([1]; dose 0.2 nM) was 94.8%, the viability at 0.001 µM ([1]; dose 1 nM) was 99.6% and the viability at 0.005 µM ([1]; dose 5 nM) was 91.8%. For the same compound, the viability at 0.025 µM ([1]; dose 25 nM) was 69.8%, the viability at 0.1 µM ([1]; dose 100 nM) was 39.6% and the viability at 0.5 µM ([1]; dose 500 nM) was 15.4%. For the same compound, the viability at 2.5 µM ([1]; dose 2500 nM) was 6.06%, the EC50 (MK cells (MK-lin); [6]) was 759 nM and the activity at 0.0002 µM (MK cells (MK-lin); dose 0.2 nM, 6 days, normalized to vehicle control, read-out: MK normalized cell count) was 86%. It also gave an activity at 0.001 µM (MK cells (MK-lin); dose 1 nM, 6 days, normalized to vehicle control, read-out: MK normalized cell count) of 96.6%, an activity at 0.005 µM (MK cells (MK-lin); dose 5 nM, 6 days, normalized to vehicle control, read-out: MK normalized cell count) of 89.1% and an activity at 0.025 µM (MK cells (MK-lin); dose 25 nM, 6 days, normalized to vehicle control, read-out: MK normalized cell count) of 91.2%. The activity at 0.1 µM (MK cells (MK-lin); dose 100 nM, 6 days, normalized to vehicle control, read-out: MK normalized cell count) was 62.2%, the activity at 0.5 µM (MK cells (MK-lin); dose 500 nM, 6 days, normalized to vehicle control, read-out: MK normalized cell count) was 23.6% and the activity at 2.5 µM (MK cells (MK-lin); dose 2500 nM, 6 days, normalized to vehicle control, read-out: MK normalized cell count) was 7.89%. The Emax (MK cells (MK-lin); parameter from QSP model fitting, read-out: Emax_drug_MK) was 7.37%, the activity at 0.0002 µM ([2]; dose 0.2 nM, 6 days, normalized to vehicle control, read-out: LymP normalized cell count) was 86.1% and the activity at 0.001 µM ([2]; dose 1 nM, 6 days, normalized to vehicle control, read-out: LymP normalized cell count) was 88%. It also gave an activity at 0.005 µM ([2]; dose 5 nM, 6 days, normalized to vehicle control, read-out: LymP normalized cell count) of 73.1%, an activity at 0.025 µM ([2]; dose 25 nM, 6 days, normalized to vehicle control, read-out: LymP normalized cell count) of 38% and an activity at 0.1 µM ([2]; dose 100 nM, 6 days, normalized to vehicle control, read-out: LymP normalized cell count) of 12.4%. For the same compound, the activity at 0.5 µM ([2]; dose 500 nM, 6 days, normalized to vehicle control, read-out: LymP normalized cell count) was 5.18%, the activity at 2.5 µM ([2]; dose 2500 nM, 6 days, normalized to vehicle control, read-out: LymP normalized cell count) was 4.62% and the Emax ([2]; parameter from QSP model fitting, read-out: Emax_drug_LymP) was 0.032%. It also gave an activity at 0.0002 µM ([3]; dose 0.2 nM, 6 days, normalized to vehicle control, read-out: GranPs normalized cell count) of 98.2%, an activity at 0.001 µM ([3]; dose 1 nM, 6 days, normalized to vehicle control, read-out: GranPs normalized cell count) of 107% and an activity at 0.005 µM ([3]; dose 5 nM, 6 days, normalized to vehicle control, read-out: GranPs normalized cell count) of 91.8%. For the same compound, the activity at 0.025 µM ([3]; dose 25 nM, 6 days, normalized to vehicle control, read-out: GranPs normalized cell count) was 73.4%, the activity at 0.1 µM ([3]; dose 100 nM, 6 days, normalized to vehicle control, read-out: GranPs normalized cell count) was 37% and the activity at 0.5 µM ([3]; dose 500 nM, 6 days, normalized to vehicle control, read-out: GranPs normalized cell count) was 8.03%. It also gave an activity at 2.5 µM ([3]; dose 2500 nM, 6 days, normalized to vehicle control, read-out: GranPs normalized cell count) of 0.794%, an Emax ([3]; parameter from QSP model fitting, read-out: Emax_drug_GranP) of 4.7% and an activity at 0.0002 µM ([4]; dose 0.2 nM, 6 days, normalized to vehicle control, read-out: MPPs normalized cell count) of 86.4%. For the same compound, the activity at 0.001 µM ([4]; dose 1 nM, 6 days, normalized to vehicle control, read-out: MPPs normalized cell count) was 88.4%, the activity at 0.005 µM ([4]; dose 5 nM, 6 days, normalized to vehicle control, read-out: MPPs normalized cell count) was 77.3% and the activity at 0.025 µM ([4]; dose 25 nM, 6 days, normalized to vehicle control, read-out: MPPs normalized cell count) was 45.6%. For the same compound, the activity at 0.1 µM ([4]; dose 100 nM, 6 days, normalized to vehicle control, read-out: MPPs normalized cell count) was 23.3%, the activity at 0.5 µM ([4]; dose 500 nM, 6 days, normalized to vehicle control, read-out: MPPs normalized cell count) was 11% and the activity at 2.5 µM ([4]; dose 2500 nM, 6 days, normalized to vehicle control, read-out: MPPs normalized cell count) was 5.77%. It also gave an Emax ([4]; parameter from QSP model fitting, read-out: Emax_drug_MPP) of 0.0264%, an activity at 0.0002 µM (granulocytes (Gran-lin); dose 0.2 nM, 6 days, normalized to vehicle control, read-out: Gran normalized cell count) of 94.7% and an activity at 0.001 µM (granulocytes (Gran-lin); dose 1 nM, 6 days, normalized to vehicle control, read-out: Gran normalized cell count) of 93.9%. It also gave an activity at 0.005 µM (granulocytes (Gran-lin); dose 5 nM, 6 days, normalized to vehicle control, read-out: Gran normalized cell count) of 88.2%, an activity at 0.025 µM (granulocytes (Gran-lin); dose 25 nM, 6 days, normalized to vehicle control, read-out: Gran normalized cell count) of 53.9% and an activity at 0.1 µM (granulocytes (Gran-lin); dose 100 nM, 6 days, normalized to vehicle control, read-out: Gran normalized cell count) of 21.5%. It also gave an activity at 0.5 µM (granulocytes (Gran-lin); dose 500 nM, 6 days, normalized to vehicle control, read-out: Gran normalized cell count) of 4.56%, an activity at 2.5 µM (granulocytes (Gran-lin); dose 2500 nM, 6 days, normalized to vehicle control, read-out: Gran normalized cell count) of 0.37% and an Emax (granulocytes (Gran-lin); parameter from QSP model fitting, read-out: Emax_drug_Gran) of 0.0335%. For the same compound, the EC50 [5, 6] was 54.6 nM, the activity at 0.0002 µM ([5]; dose 0.2 nM, 6 days, normalized to vehicle control, read-out: GMPs normalized cell count) was 92.3% and the activity at 0.001 µM ([5]; dose 1 nM, 6 days, normalized to vehicle control, read-out: GMPs normalized cell count) was 94.2%. It also gave an activity at 0.005 µM ([5]; dose 5 nM, 6 days, normalized to vehicle control, read-out: GMPs normalized cell count) of 92.5%, an activity at 0.025 µM ([5]; dose 25 nM, 6 days, normalized to vehicle control, read-out: GMPs normalized cell count) of 76.3% and an activity at 0.1 µM ([5]; dose 100 nM, 6 days, normalized to vehicle control, read-out: GMPs normalized cell count) of 53.9%. For the same compound, the activity at 0.5 µM ([5]; dose 500 nM, 6 days, normalized to vehicle control, read-out: GMPs normalized cell count) was 23.9% and the activity at 2.5 µM ([5]; dose 2500 nM, 6 days, normalized to vehicle control, read-out: GMPs normalized cell count) was 4.62%.
